Measured values reported in PubChem BioAssay (NCI).
“And” between values parts separate entries of the source, which are not always exact repeats. Equal values may be shown once.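 Cells were grown in 96-well plates and exposed to each compound for 48 hours at five concentrations; endpoints were interpolated linearly between bracketing concentrations, or set to the highest concentration if not reached. Here, GI50 denotes the concentration required for 50% inhibition of growth. Definition used: TGI = concentration required for complete inhibition of growth.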

Assays:
Assay in all cases: growth of human tumour cells (NCI), 48 h
HL-60(TB) leukemia = test system: HL-60(TB) leukemia
IGROV1 ovarian = test system: IGROV1 ovarian
UACC-257 melanoma = test system: UACC-257 melanoma
SF-268 CNS = test system: SF-268 CNS
HCC-2998 colon = test system: HCC-2998 colon
M14 melanoma = test system: M14 melanoma
A498 renal = test system: A498 renal
SK-MEL-28 melanoma = test system: SK-MEL-28 melanoma
HCT-116 colon = test system: HCT-116 colon
MALME-3M melanoma = test system: MALME-3M melanoma

Row | SMILES | GI50 (HL-60(TB) leukemia) [µM] | TGI (HL-60(TB) leukemia) [µM] | GI50 (IGROV1 ovarian) | TGI (IGROV1 ovarian) [µM] | GI50 (UACC-257 melanoma) | TGI (UACC-257 melanoma) [µM] | GI50 (SF-268 CNS) | TGI (SF-268 CNS) [µM] | GI50 (HCC-2998 colon) [µM] | TGI (HCC-2998 colon) [µM] | GI50 (M14 melanoma) | TGI (M14 melanoma) [µM] | GI50 (A498 renal) [µM] | TGI (A498 renal) [µM] | GI50 (SK-MEL-28 melanoma) | TGI (SK-MEL-28 melanoma) [µM] | GI50 (HCT-116 colon) [µM] | TGI (HCT-116 colon) [µM] | GI50 (MALME-3M melanoma) | TGI (MALME-3M melanoma)
1 | COc1cc2c(cc1OCCCN1CCN(CCCOc3cc4c(cc3OC)C(=O)N3CC(F)(F)C[C@H]3C=N4)CC1)N=C[C@@H]1CC(F)(F)CN1C2=O | 1.18 | 5.06 | 1.92 µM | 5.13 | 15.3 µM | 31.6 | 3.57 µM | 14.5 | 5.4 | 19.4 | 3.25 µM | 16.5 | 2.43 | 5.95 | 4.28 µM | 15.2 | 3.59 | 22.4 | 2.8 µM | 6.34 µM
2 | CSC[C@H](NC(=O)COc1cccc2cnccc12)C(=O)NC(Cc1ccccc1)C(O)C(=O)N1CSC[C@H]1C(=O)NC(C)(C)C (some centres undefined) |  | 91.4 |  | > 100 |  | > 100 |  | 63 |  | > 100 |  | > 100 |  | > 100 |  | > 100 |  | > 100 |  | > 100 µM
3 | NNc1ncnc2nc[nH]c12 | 3.53 | 21.5 | 3.56 µM | > 55.1 | 57.6 µM | > 100 | 8.24 µM | > 100 | 7.48 | > 58.1 | 2.76 µM | > 100 | 5.41 | > 100 | 34.6 µM | > 100 | 2.25 | 15.9 | 28.6 µM | > 100 µM
4 | CC(C)=CCC1=C(O)c2ccccc2C(=O)C1=O |  | > 100 | > 100 µM and 46.2 µM and 14.8 µM | > 100 | > 100 µM and 28.6 µM | > 100 | > 100 µM and 11.8 µM | > 100 |  | > 100 | > 100 µM and 45.8 µM and 16.3 µM | > 100 |  | > 100 | > 100 µM and 23 µM | > 100 |  | > 100 | > 100 µM and 35.1 µM and 20.4 µM | > 100 µM and 96.2 µM
5 | O=c1[nH]c(-c2cccc(F)c2)cc2cc(F)ccc12 | 0.199 | 0.684 | 0.822 µM | > 100 | > 100 µM | > 100 | > 82.9 µM | > 100 | 1.91 | > 100 | 0.16 µM | > 100 | 0.244 | 2.94 | 7.5 µM | > 100 | 0.195 | > 100 | > 100 µM | > 100 µM
6 | CCOc1ccc(NC(=O)CC2SC(=Nc3ccc(C)cc3C)NC2=O)cc1 (centres undefined) |  | > 100 |  | > 100 |  | > 100 |  | > 100 |  | > 100 |  | > 100 |  | > 100 |  | > 100 |  | > 100 |  | > 100 µM
7 | CNc1cc2oc(=O)cc(C)c2cc1C |  | > 100 |  | > 100 |  | > 100 |  | > 100 |  | > 100 |  | > 100 |  | > 100 |  | > 100 |  | > 100 |  | > 100 µM
8 | Oc1oc(C(=C2N=c3ccccc3=N2)c2ccc(Cl)cc2)c(O)c1-c1ccc(Cl)cc1 |  | 5.02 |  | > 100 |  | 6.45 |  | > 100 |  | 20.8 |  | 18 |  | 9.06 |  | 33.7 |  | 9.14 |  | 7.72 µM
9 | Nc1c(C(=O)Nc2ccccn2)sc2nc3c(cc12)C(=O)CCC3 | 0.689 | 5.27 | 2.23 µM | > 100 | 69.8 µM | > 100 | 8.26 µM | > 100 | 3.15 | > 100 | 0.483 µM | > 100 | 0.345 | > 100 | 13.4 µM | > 100 | 0.52 | > 100 | 13.1 µM | > 100 µM
10 | O=C1C/C(Br)=C\c2ccccc2-c2ccccc21 |  | 5.7 |  | 9.02 |  | 14.5 |  | 8.39 |  | 19.3 |  | 5.27 |  | 22.5 |  | 2.8 |  | 3.71 |  | 4.94 µM
11 | c1ccc2c(c1)CCc1c(-c3ccncc3)n[nH]c1-2 |  | 88.8 |  | 89.2 |  | 57.7 |  | > 100 |  | 94.2 |  | 47.9 |  | 79.8 |  | 62.8 |  | 46.2 |  | > 100 µM
12 | COC(=N)c1csc(C2OC(CO)C(O)C2O)n1 (centres undefined) |  | > 100 |  | > 100 |  | > 100 |  | > 100 |  | > 100 |  | > 100 |  | > 100 |  | > 100 |  | > 100 |  | > 100 µM
13 | Cc1cc(C)nc(NS(=O)(=O)c2ccc(Nc3c4ccccc4nc4c(C(=O)N5CCN(CCO)CC5)cccc34)cc2)n1 |  | > 100 |  | > 100 |  | > 100 |  | > 100 |  | > 100 |  | > 100 |  | > 100 |  | > 100 |  | > 100 |  | > 100 µM
14 | COc1ccc(CNc2c3ccccc3nc3ccccc23)cc1F | 3.37 | 10.4 | 2.82 µM | 10.4 | 3.98 µM | 16.7 | 3.76 µM | 15.1 | 2.07 | 5.27 | 1.79 µM | 3.59 | 1.98 | 5.99 | 3.84 µM | 13.9 | 2.92 | 12.3 | 2.71 µM | 7.73 µM
15 | CNCCCNc1ccnc2cc(Cl)ccc12 | 22.1 | 65 | 18.8 µM | 63.8 |  |  | 22.6 µM | 98.3 | 28.7 | > 100 | 16 µM | 34.4 | 12.4 | 40.3 | 15.5 µM | 34.6 | 11.2 | 41.4 | 19.7 µM | 40.5 µM
